# Assay results from patent publication US20240400572A1, “COMPOUNDS AND METHODS FOR TREATING CANCERS THAT ARE MGMT DEFICIENT REGARDLESS OF MMR STATUS” (Yale University, priority 2021, published 2024).
# Legend:
# LN229 MGMT−/MMR− cells = assay: Short-term cell viability assay; format: cell-based, human; conditions: Homo sapiens, LN-229
# Method: (§1) Short-term Cell Viability Assay. Cells were seeded in 96-well plates at 1000 or 2000 cells/well and allowed to adhere at 23° C. for 60 min and then incubated overnight at 37° C. Cells were treated with indicated concentrations of compounds in triplicate for 4-6 days prior to fixation with 3.7% paraformaldehyde and nuclear staining with 1 μg/mL Hoechst 33342 dye. Cells were imaged on a Cytation 3 imaging reader (BioTek) and quantified using CellProfiler software.
# Statistical analysis. Statistical analysis was performed using GraphPad Prism software. Data are presented as mean or median±SD or SEM as indicated. For in vitro short-term growth delay experiments, IC50 values were determined from the nonlinear regression equation, [inhibitor] vs normalized response with variable slope. […]
# We synthesized the imidazotetrazine 4a (KL-50) and the triazene 4b (KL-85), as vehicles to deliver 2-fluoroethyl diazonium (4c), and a series of related agents to probe structure-activity relationships in tissue culture (FIG. Z1, D and F). […] We evaluated the cytotoxicity of our compounds in short-term cell viability assays against four isogenic LN229 glioblastoma cell lines engineered to be proficient or deficient in MGMT and/or MMR activity, using short hairpin RNAs (shRNAs) targeting MSH2 (referred to as MGMT+/−, MMR+/− cells hereafter; FIG. ZS2A). […]
# [1] = system: PEO4 (BRCA2+) and PEO1 (BRCA2−/−) cells; assay: Short-term cell viability assay in PEO1/4 model; format: cell-based, human
# Method: (§2) FIGS. Z4A-Z4I. KL-50 (4a) activates DNA damage response pathways and cycle arrest in MGMT− cells, independent of MMR, and induces sensitivity in cells deficient in ICL or HR repair. (FIGS. Z4A, Z4B, and Z4C) Phospho-SER139-H2AX (γH2AX) (A), 53BP1 (FIG. Z4B), and phospo-SER33-RPA2 (pRPA) (FIG. Z4C) foci formation quantified by % cells with 10 foci in LN229 MGMT+/−, MMR+/− cells treated with 0.1% DMSO control, 20 μM KL-50 (4a), or 20 μM TMZ (1a) for 48 h. Columns, mean; error bars, SD; n≥5 technical replicates. Additional time course data is presented in FIG. ZS6B to D. (FIG. Z4D) Representative foci images of data in (FIG. Z4A) to (FIG. Z4C). (FIG. Z4E) Percentage of cells in G1, S, and G2 cell cycle phases after treatment as in (A) to (C), measured using integrated nuclear (Hoechst) staining intensity. Columns, mean; error bars, SD; n=3 independent analyses. (FIG. Z4F) Change in percent cells with 1 micronuclei from baseline (DMSO control) after treatment as in (FIG. Z4A) to (FIG. Z4C). Columns, mean; error bars, SD; […] technical replicates; **** p<0.0001; ns, not significant. Additional validation is presented in FIG. ZS9, A and B. (FIG. Z4G) Short-term viability assay curves for KL-50 (4a) in PD20 cells, deficient in FANCD2 (FANCD2−/−) or complemented with FANCD2 (+FANCD2). (FIG. Z4H) Short-term viability assay curves for KL-50 (4a) in PEO4 (BRCA2+) and PEO1 (BRCA2−/−) cells pre-treated with 0.01% DMSO control or 10 μM O^6BG (+O^6BG) for 1 h prior to KL-50 (4a) addition. (FIG. Z4I) Short-term viability assay curves for KL-50 (4a) in DLD1 BRCA2+/− and BRCA2−/− cells pre-treated with 0.01% DMSO control or 10 μM O^6BG (+O^6BG) for 1 h prior to KL-50 (4a) addition. For (FIG. Z4G), (FIG. Z4H), and (FIG. Z4I), points, mean; error bars, SD; n=3 technical replicates.
# as §1
# [2] = system: DLD1 BRCA2+/− and BRCA2−/− cells; assay: Short-term cell viability assay in DLD1 isogenic model; format: cell-based, human
# Method: as §2, §1
# [3] = Maximum tolerated dose study; format: in vivo
# Method: Healthy mice were treated with escalating doses of KL-50 (4a) (0, 25, 50, 100, and 200 mg/kg×1 dose), and monitored over time for changes in both weights and hematologic profiles. […] As the main dose limiting systemic toxicity of TMZ (1a) is myelosuppression, we measured complete blood counts for all mice on day 0 before treatment and subsequently on day 7 after drug administration.
smiles,measurement,setting,value
"NC(=O)c1ncn2c(=O)n(CCF)nnc12 [KL-50, 3-(2-fluoroethyl)-4-oxo-3H,4H-imidazo[4,3-d][1,2,3,5]tetrazine-8-carboxamide]",IC50,LN229 MGMT−/MMR− cells,~20 µM
same,therapeutic index (TI),"[1]; PEO1/4 model, ratio of IC50 values",62 fold
same,sensitivity of BRCA2-deficient cells (in words),"[1]; PEO1 versus PEO4, ± 10 μM O^6BG",BRCA2 loss enhanced the toxicity
same,sensitivity of BRCA2-deficient cells (in words),"[2]; DLD1 BRCA2−/− versus BRCA2+/−, ± 10 μM O^6BG",BRCA2 loss enhanced the toxicity
same,therapeutic index (TI),[2]; ratio of IC50 values in MGMT+/BRCA2+ cells compared to MGMT−/BRCA2− cells,~600 fold
same,mice observably ill warranting euthanasia,[3]; 200 mg/kg × 1 dose,Two of three mice
same,weight loss,"[3]; 100 or 200 mg/kg × 1 dose, regressed to baseline at the end of one week",greater than 10%
same,toxicity in the remaining cohorts (in words),[3]; cohorts below 200 mg/kg × 1 dose,no evidence of toxicity
same,complete blood counts (in words),"[3]; day 7 after drug administration, all cohorts",within normal physiological ranges
same,tolerability (in words),"[3]; healthy mice, 0, 25, 50, 100, and 200 mg/kg × 1 dose",well-tolerated
